In patent publication US9889129B2, “Method of modulating ribonucleotide reductase” (Case Western Reserve University, priority 2012, dated 2018):
Like-named read-outs stand apart in the source and are kept apart here. Each block holds one compound with its values, some of them ahead of it.

Key:
RR = target: T1, RR (Homo sapiens, UniProt P23921); assay: RR inhibition by ligands with anticancer properties (Table 4)
T1 sequence (P23921 1-792): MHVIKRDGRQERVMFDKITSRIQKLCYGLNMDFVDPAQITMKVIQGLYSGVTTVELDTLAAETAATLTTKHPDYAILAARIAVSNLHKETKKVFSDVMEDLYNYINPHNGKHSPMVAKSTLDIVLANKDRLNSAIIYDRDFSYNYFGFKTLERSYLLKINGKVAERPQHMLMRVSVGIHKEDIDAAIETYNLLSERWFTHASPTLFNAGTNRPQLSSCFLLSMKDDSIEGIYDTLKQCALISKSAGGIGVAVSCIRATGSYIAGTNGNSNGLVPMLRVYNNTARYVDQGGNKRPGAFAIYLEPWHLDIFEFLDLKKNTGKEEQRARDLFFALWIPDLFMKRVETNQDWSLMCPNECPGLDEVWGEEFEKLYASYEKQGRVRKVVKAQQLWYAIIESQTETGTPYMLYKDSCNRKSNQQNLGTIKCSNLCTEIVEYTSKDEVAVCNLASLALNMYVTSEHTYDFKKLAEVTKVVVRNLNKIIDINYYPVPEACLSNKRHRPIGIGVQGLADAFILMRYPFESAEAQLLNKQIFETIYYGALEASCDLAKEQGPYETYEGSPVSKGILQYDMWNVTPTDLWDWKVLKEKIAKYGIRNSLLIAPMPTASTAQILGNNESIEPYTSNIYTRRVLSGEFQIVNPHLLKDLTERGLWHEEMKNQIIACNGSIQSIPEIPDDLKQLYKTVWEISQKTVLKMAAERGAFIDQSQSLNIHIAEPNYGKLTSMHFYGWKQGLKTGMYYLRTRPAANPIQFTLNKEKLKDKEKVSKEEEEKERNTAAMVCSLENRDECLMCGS

[1] = test system: A549 non-small cell lung cells; pancreatic cells (Panc-1); colon cells (HCT-116); assay: MTT Assay II; type: cell-based
Text: We conducted an MTT assay to measure cell metabolism as a surrogate for cell number using A549, Non-Small Cell Lung cells; pancreatic cells (Panc-1); and colon cells (HCT-116).

[2] = test system: MDA-MB-231 human breast carcinoma cell line; assay: Growth inhibition studies on MDA-MB-231; type: cell-based
Text: Growth inhibition studies on MDA-MB-231 human breast carcinoma cell line in the presence of gemcitabine (F2CDP-red) or cis-platin (CDDP-blue) alone (solid lines), or in combination with a non-toxic does of compound 2 (dashed lines).
Growth of the MDA-MB-231 cancer cell line is inhibited by compound 3.

[3] = test system: A549 non-small cell lung cells; 231 triple negative breast cells; LN229; assay: MTT Assay I; type: cell-based; conditions: continuous doses for three days; for IC50: 72 h, range over A549, 231, LN229; for ACTIVITY: A549, 231, LN229
Procedure: We conducted an MTT assay to measure cell metabolism as a surrogate for cell number using A549, Non-Small Cell Lung cells; 231, Triple negative breast cells; and LN229. All values are relative to untreated controls, corrected for any MTT absorbance due to media alone.
The cells were treated with continuous doses of the indicated drugs for three days, at which time the MTT assay was run. The control is listed as a dose of 0.1 uM because we plot on a log scale and wish to avoid taking the log of 0 in the calculations.

[4] = test system: ribonucleotide reductase activity; assay: DNA synthesis assay
Text: The IC50 of a drug can be determined by constructing a
dose-response curve and examining the effect of different concentrations of a candidate agent on cell growth and/or ribonucleotide reductase enzyme activity. IC50 values can be calculated for a given compound by determining the concentration needed to inhibit half of the maximum biological response of the compound.

[5] = A549, Panc-1, HCT-116, read-out: IC50

- IC50 (RR): 5000 to 10000 nM
Structure (SMILES): OC(COc1ccc2c(c1)CCC2)CN1CCN(Cc2ccccc2)CC1 (stereo not shown) [Compound 4]

- IC50 (RR): 5000 to 10000 nM
Structure (SMILES): CCCCCCCCCCCCC(=O)NCC(=O)NC(CCCCN)C(=O)OC (stereo not shown) [Compound 5]

- IC50 [3]: 800 to 2000 nM
- IC50 [4]: ≤ 1000 nM
- ACTIVITY ([4]; DNA synthesis assay, exposed for 2 continuous days): most potent
Structure (SMILES): O=C(CCCCCCCCC(=O)N/N=C/c1c(O)ccc2ccccc12)N/N=C/c1c(O)ccc2ccccc12 [Drug 1]
- ACTIVITY [3]: Steady effect on all three cell lines

- IC50 [4]: 50000 to 100000 nM
Structure (SMILES): Cc1c2c(c(O)c3c(O)ccc(Cl)c13)C(=O)C1(O)C(=O)C(C(=O)O)=C(O)C(N(C)C)C1C2 (stereo not shown) [Drug 4]

- IC50 ([1]; A549, Panc-1, HCT-116, read-out: IC50s): 100 to 500 nM
Structure (SMILES): Nc1ccn([C@@H]2O[C@H](CO)[C@@H](O)C2(F)F)c(=O)n1 [Gemcitabien, reference compound]

The next lines start with the compound.

Structure (SMILES): O=C(CCCCCCCCC(=O)N/N=C/c1c(O)ccc2ccccc12)N/N=C/c1c(O)ccc2ccccc12 [Compound 1]
- IC50 (RR): 600 to 2000 nM
- IC50 [1, 5]: 600 to 2000 nM

Structure (SMILES): OC(COc1ccc(OCC(O)CN2CCN(C3c4ccccc4-c4ccccc43)CC2)cc1)CN1CCN(C2c3ccccc3-c3ccccc32)CC1 (stereo not shown) [Compound 2]
- effect on cytotoxicity of gemcitabine or cis-platin ([2]; combination with a non-toxic dose of compound 2): increases cytotoxicity of gemcitabine of cis-platin
- IC50 [1, 5]: 3000 to 8000 nM

Structure (SMILES): O=C(CC1CCCCC1)N/N=C\c1cccc2cccc(O)c12 [Compound 3]
- cytotoxicity / growth inhibition ([2]; single agent): cytotoxic against human breast carcinoma cells
- IC50 (RR): 225 nM

Structure (SMILES): OC(COc1ccc(OCC(O)CN2CCN(C3c4ccccc4-c4ccccc43)CC2)cc1)CN1CCN(C2c3ccccc3-c3ccccc32)CC1 (stereo not shown) [Drug 2]
- IC50 [3]: 3000 to 12000 nM
- ACTIVITY [3]: Shows an extremely dramatic effect.
